Measurements published in patent publication EP0239461A1, “N-¬¬(hydroxy-2-phenyl)(phenyl)methylene amino-2 ethyl acetamide derivatives, process for their preparation and their therapeutical use” (SYNTHELABO, priority 1986, dated 1987).

What was measured:
[1] = test system: ulcère d'estomac induit par la phénylbutazone; assay: Phenylbutazone-induced stomach ulcer in the rat; type: in vivo; conditions: po, maximal decrease of ulcers, 30 min before phenylbutazone 200 mg/kg p.o., female Wistar rats, scored 2 h later, read-out: Diminution ulcération (%); for inhibition in vivo at 30 mg/kg: dose 30 mg/kg p.o.; for inhibition in vivo at 100 mg/kg: dose 100 mg/kg p.o.
Description: Les composés de l'invention ont été testés quant à leur effet sur l'ulcère d'estomac induit par la phénylbutazone chez le rat.
Le test est effectué sur des rats Wistar femelles pesant 180-210 g à jeun depuis 20 heures, répartis en blocs randomisés.
Les ulcères sont provoqués par l'administration orale de phénylbutazone en solution mole à mole avec de la soude, à la dose de 200 mg/kg.
Les composés à étudier sont administrés par voie orale à raison de 10, 30 ou 100 mg/kg, 30 minutes avant l'ingestion de phénylbutazone, les animaux témoins ne recevant que le placébo.
Deux heures après l'administration de l'agent ulcérigène, les animaux sont sacrifiés par inhalation de chloroforme. Les estomacs sont prélevés et le degré d'ulcération est noté en aveugle de 0 à 3.
(§1) Le tableau suivant donne les toxicités et les diminutions maximales d'ulcères obtenues aux doses indiquées, pour quelques composés de l'invention.

[2] = Acute toxicity, oral LD50 in the mouse; conditions: in vivo, read-out: DL50 (mg/kg) p.o.
Description: Leur toxicité aigüe est faible : la dose léthale à 50 % (LD50) déterminée chez la souris est supérieure à 1000 mg/kg par la voie orale pour la plupart d'entre eux.
as §1

| Structure (SMILES) | inhibition in vivo at 10 mg/kg ([1]; dose 10 mg/kg p.o.) [%] | LD50 [2] [mg/kg] | inhibition in vivo at 30 mg/kg [1] [%] | inhibition in vivo at 100 mg/kg [1] [%] |
| --- | --- | --- | --- | --- |
| O=C(CN1CCNCC1)NCCN=C(c1cc(Cl)ccc1O)c1ccccc1Cl [compound 23] | 87 | – | – | – |
| O=C(CN1CCC(O)CC1)NCCN=C(c1ccc(Cl)c(Cl)c1)c1cc(Cl)ccc1O [compound 5] | – | > 1000 | 92 | – |
| O=C(CN1CCC(O)CC1)NCCN=C(c1ccccc1)c1cc(Cl)ccc1O [Composé n° 2] | – | > 1000 | – | 100 |
| Cc1ccc(O)c(C(=NCCNC(=O)CN2CCC(O)CC2)c2ccccc2Cl)c1 [Composé n° 7, N-[[[(méthyl-5 hydroxy-2 phényl)(chloro-2 phényl)méthylène]amino]-2 éthyl] (hydroxy-4 pipéridinyl-1)-2 acétamide] | – | > 1000 | 95 | – |
| O=C(CN1CCC(O)CC1)NCCN=C(c1ccccc1Cl)c1cc(Cl)cc(Cl)c1O [compound 6] | – | > 1000 | 100 | – |
| Cc1cc(Cl)cc(C(=NCCNC(=O)CN2CCC(O)CC2)c2ccc(Cl)cc2)c1O [compound 3] | – | > 1000 | 94 | – |
| Cc1ccc(C(=NCCNC(=O)CN2CCC(O)CC2)c2cc(Cl)ccc2O)cc1 [compound 4] | – | > 1000 | – | 96 |
| O=C(CN1CCC(O)CC1)NCCN=C(c1cc(Cl)ccc1O)c1ccc(Cl)cc1Cl [compound 8] | – | > 1000 | – | 98 |
| O=C(CN1CCC(O)CC1)NCCNC(c1cc(Cl)ccc1O)c1ccccc1Cl (stereo not shown) [compound 26] | – | > 1000 | 97 | – |
| O=C(CN1CCC(O)CC1)NCCN=C(c1cc(Cl)ccc1O)c1ccccc1Cl [Composé n° 1, N-[[[(chloro-5 hydroxy-2 phényl)(chloro-2 phényl)méthylène]amino]-2 éthyl] (hydroxy-4 pipéridinyl-1)-2 acétamide] | – | > 1000 | 100 | – |
| Cc1ccccc1N1CCN(CC(=O)NCCN=C(c2cc(Cl)ccc2O)c2ccccc2Cl)CC1 [compound 19] | – | > 1000 | – | 71 |
| O=C(CN1CCN(c2ccc(Cl)cc2)CC1)NCCNC(c1cc(Cl)ccc1O)c1ccccc1Cl (stereo not shown) [compound 29] | – | > 1000 | 98 | – |
| Cc1ccccc1N1CCN(CC(=O)NCCNC(c2cc(Cl)ccc2O)c2ccccc2Cl)CC1 (stereo not shown) [compound 27] | – | > 1000 | 98 | – |
